Measured values: US20230240991A1, “PROTEOPHOSPHOLIPOSOMES HAVING HDL-TYPE VESICLES” (priority 2019, published 2023)

Test system: intact washed human platelets
Test: [3H]PAF radioligand binding to intact washed human platelets after preincubation with plasma fractions (FIG. 1)
Experimental: Washed intact human thrombocytes are protected with plasma fractions from healthy volunteers (n=3, means, ±1 S.D.).
The thrombocytes are further preincubated with dialyzed, delipidated plasma proteins (0.36 mg/ml), with purified VLDL-fractions (0.9 mg/ml), with IDL (0.02 mg/ml), with HDL (0.5 mg/ml) or with delipidated HSA (0.25%).
Washed thrombocytes are tested in the presence of thioether-2-acyl-glycero-phosphatidylcholines (500 nM) compared to controls.

alkyl-acetyl-sn-glycero-phosphocholines [PAF]
total [3H]PAF binding (500 nM unlabeled PAF, n=3, control 22±3 fmol): 6±2 fmol per 10^8 cells/ml

thioether-2-acyl-glycero-phosphatidylcholines [Thio-GPC]
total binding of [3H]PAF (500 nM Thio-GPC, washed thrombocytes, compared to controls): do not at all change
